Results published in ChEMBL document CHEMBL5385849, “Discovery of 1-hydroxy-2-methylquinolin-4(1H)-one derivatives as new cytochrome bd oxidase inhibitors for tuberculosis therapy” (Eur J Med Chem, 2023).

Tested on: Mycobacterium tuberculosis
Assay: Inhibition of Mycobacterium tuberculosis harboring cydAB mutant inverted-membrane vesicle cytochrome bd oxidase assessed as reduction in oxygen consumption rate at 10 uM measured upto 4 days by Methylene blue dye based assay
Type: cell membranes
Settings: time <= 4.0 day

| SMILES | inhibition [%] |
| --- | --- |
| CC(C)=CCC/C(C)=C/CC/C(C)=C/Cc1c(C)[nH]c2ccccc2c1=O [AURACHIN D] | 55 |
| Cc1c(Cc2ccc(OC(F)(F)F)cc2)c(=O)c2ccccc2n1O | 82 |
